Assay results: ChEMBL document CHEMBL3632477 (2015)
pEC50: −log10 of the molar value.

Molecular target: Glucagon-like peptide 1 receptor (Homo sapiens, UniProt P43220)
Test: Agonist activity at human GLP-1R expressed in CHO-K1 cells assessed as increase in cAMP level incubated for 30 mins
Type: functional, cell-based

Glucagon-like peptide 1 receptor, sequence (P43220 whole entry): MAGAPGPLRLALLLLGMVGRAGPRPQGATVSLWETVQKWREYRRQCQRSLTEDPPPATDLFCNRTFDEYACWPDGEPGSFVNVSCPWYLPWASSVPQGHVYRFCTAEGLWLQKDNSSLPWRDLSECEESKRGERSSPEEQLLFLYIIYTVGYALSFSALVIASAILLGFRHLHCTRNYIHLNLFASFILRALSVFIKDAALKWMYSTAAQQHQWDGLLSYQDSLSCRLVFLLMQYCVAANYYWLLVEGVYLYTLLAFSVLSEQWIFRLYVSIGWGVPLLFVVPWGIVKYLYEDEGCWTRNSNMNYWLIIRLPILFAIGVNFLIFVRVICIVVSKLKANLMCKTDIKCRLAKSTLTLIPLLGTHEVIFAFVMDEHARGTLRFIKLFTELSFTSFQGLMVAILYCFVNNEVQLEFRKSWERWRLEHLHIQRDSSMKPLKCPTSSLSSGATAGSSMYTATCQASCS

**Q.** CC[C@H](C)[C@@H]1NC(=O)[C@H](CCC(=O)O)NC(=O)[C@@H]2CCCN2C(=O)[C@H](Cc2cnc[nH]2)NC(=O)[C@H](CC(=O)O)NC(=O)[C@H](Cc2ccc(O)cc2)NC(=O)[C@H](CC(N)=O)NC(=O)[C@@H]2CSSC[C@@H]3NC(=O)CNC(=O)CNC(=O)CNC(=O)[C@H](C)NC(=O)[C@H](C)NC(=O)CNC(=O)CNC(=O)[C@H](CSSC[C@H](NC3=O)C(=O)N[C@@H](CO)C(=O)N[C@@H](CC(=O)O)C(=O)N3CCC[C@H]3C(=O)N[C@@H](CCCNC(=N)N)C(=O)N2)NC1=O was tested. Which pEC50 did it give?
**A.** Its pEC50 is 9.85.
